Measured values published in patent US20250129027A1 (APOGEE PHARMACEUTICALS, INC., priority 2023, published 2025).

Key:
human recombinant FAAH = human recombinant FAAH (Homo sapiens (Human), UniProt O00519); assay: In vitro inhibition of FAAH activity (fluorescent inhibitor screening kit, AMC arachidonoyl amide); type: biochemical; settings: human recombinant FAAH; read-out: Inhibition on FAAH activity (IC50)
Summary of the method: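 Fluorogenic kit assay: AMC arachidonoyl amide is cleaved by human recombinant FAAH, read at 340-360/450-465 nm. Percent inhibition versus non-treated control; IC50 values derived from multiple compound concentrations where tested.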

human recombinant MAGL = human recombinant MAGL (Homo sapiens (Human), UniProt Q99685); assay: In vitro inhibition of MAGL activity (inhibitor screening kit, 4-nitrophenylacetate); type: biochemical; settings: human recombinant MAGL
Summary of the method: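 Colorimetric kit assay: recombinant human MAGL hydrolyses 4-nitrophenylacetate to 4-nitrophenol, read by absorbance at 405-412 nm. Inhibition given as percentage of signal in treated versus untreated MAGL control.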

Sequence of human recombinant FAAH (O00519 whole entry): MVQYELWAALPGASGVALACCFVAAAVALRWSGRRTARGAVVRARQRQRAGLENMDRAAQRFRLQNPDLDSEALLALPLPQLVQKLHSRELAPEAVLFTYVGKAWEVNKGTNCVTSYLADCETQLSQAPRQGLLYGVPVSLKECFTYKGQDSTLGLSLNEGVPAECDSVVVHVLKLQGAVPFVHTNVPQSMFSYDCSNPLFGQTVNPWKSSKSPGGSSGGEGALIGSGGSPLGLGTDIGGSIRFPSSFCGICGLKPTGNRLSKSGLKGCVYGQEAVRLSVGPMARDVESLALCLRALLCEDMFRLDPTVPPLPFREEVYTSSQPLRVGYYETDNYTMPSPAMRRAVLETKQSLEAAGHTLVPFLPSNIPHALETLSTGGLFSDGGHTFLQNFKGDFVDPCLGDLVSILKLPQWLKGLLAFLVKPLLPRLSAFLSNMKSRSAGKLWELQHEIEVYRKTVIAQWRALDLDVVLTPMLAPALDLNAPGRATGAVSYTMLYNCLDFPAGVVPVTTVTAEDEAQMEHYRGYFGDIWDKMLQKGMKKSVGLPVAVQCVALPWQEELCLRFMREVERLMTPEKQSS
Sequence of human recombinant MAGL (Q99685 whole entry): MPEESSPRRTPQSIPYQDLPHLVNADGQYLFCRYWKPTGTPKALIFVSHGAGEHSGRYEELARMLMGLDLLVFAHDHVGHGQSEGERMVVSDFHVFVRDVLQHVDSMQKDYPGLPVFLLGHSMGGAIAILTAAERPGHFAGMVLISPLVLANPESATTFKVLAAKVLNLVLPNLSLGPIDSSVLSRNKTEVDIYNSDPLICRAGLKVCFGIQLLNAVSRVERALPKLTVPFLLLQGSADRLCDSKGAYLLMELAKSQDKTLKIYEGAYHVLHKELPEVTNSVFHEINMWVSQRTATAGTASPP

In the case of `CSc1ccc(OC(=O)NC2CCCCC2)cc1-c1cncc(-c2nnco2)c1` [Example 190, 3-(5-(1,3,4-oxadiazol-2-yl)pyridin-3-yl)-4-(methylthio)phenyl cyclohexylcarbamate], the IC50 (human recombinant FAAH) is reported as 0.1 to 1 µM and the IC50 (human recombinant MAGL) is reported as over 10 µM.
`COc1ccc(OC(=O)NC2CCCC2)cc1-c1cncc(-c2ccno2)c1` [Example 112, 3-(5-(isoxazol-5-yl)pyridin-3-yl)-4-methoxyphenyl cyclopentylcarbamate] gave an IC50 (human recombinant FAAH) of about 0.1 µM and an IC50 (human recombinant MAGL) of over 10 µM.
`O=C(NC1CCCCCC1)Oc1cccc(-c2cncc(-c3nccs3)c2)c1` [Example 120, 3-(5-(thiazol-2-yl)pyridin-3-yl)phenyl cycloheptylcarbamate] was tested, and the IC50 (human recombinant FAAH) was 0.01 to 0.1 µM and the IC50 (human recombinant MAGL) was about 10 µM.
Work on `CCCCCCCCNC(=O)Oc1ccc(OC)c(-c2cncc(-c3ccno3)c2)c1` [Example 109, 3-(5-(isoxazol-5-yl)pyridin-3-yl)-4-methoxyphenyl octylcarbamate] yielded an IC50 (human recombinant FAAH) of 0.001 to 0.01 µM and an IC50 (human recombinant MAGL) of about 10 µM.
`O=C(NC1CCCC1)Oc1ccc(F)c(-c2cncc(-c3ncco3)c2)c1` [Example 85, 4-fluoro-3-(5-(oxazol-2-yl)pyridin-3-yl)phenyl cyclopentylcarbamate] showed an IC50 (human recombinant FAAH) of 0.01 to 0.1 µM and an IC50 (human recombinant MAGL) of over 10 µM.
`COc1ccc(OC(=O)NC2CCCCC2)cc1-c1cncc(-c2cccs2)c1` [Example 69, 4-methoxy-3-(5-(thiophen-2-yl)pyridin-3-yl)phenyl cyclohexylcarbamate] was tested, and the IC50 (human recombinant FAAH) was 0.1 to 1 µM and the IC50 (human recombinant MAGL) was over 10 µM.
Work on `CCCCCCCCNC(=O)Oc1cc(-c2cncc(-c3ncco3)c2)ccc1OC` [Example 84, 2-methoxy-5-(5-(oxazol-2-yl)pyridin-3-yl)phenyl octylcarbamate] yielded an IC50 (human recombinant FAAH) of 0.1 to 1 µM and an IC50 (human recombinant MAGL) of about 10 µM.
`COc1ccc(OC(=O)NC2CCCCC2)cc1-c1cncc(-c2nnco2)c1` [Example 170, 3-(5-(1,3,4-oxadiazol-2-yl)pyridin-3-yl)-4-methoxyphenyl cyclohexylcarbamate] gave an IC50 (human recombinant FAAH) of 0.1 to 1 µM and an IC50 (human recombinant MAGL) of about 10 µM.
`O=C(NCc1ccccc1)Oc1cccc(-c2cncc(-c3nnn[nH]3)c2)c1` [Example 240, 3-(5-(1H-tetrazol-5-yl)pyridin-3-yl)phenyl benzylcarbamate] was tested, and the IC50 (human recombinant FAAH) was over 1 µM and the IC50 (human recombinant MAGL) was over 10 µM.
Compound `O=C(NC1CCCC1)Oc1cccc(-c2cncc(-c3ccno3)c2)c1` [Example 106, 3-(5-(isoxazol-5-yl)pyridin-3-yl)phenyl cyclopentylcarbamate] has an IC50 (human recombinant FAAH) of 0.01 to 0.1 µM and an IC50 (human recombinant MAGL) of over 10 µM.
`COc1ccc(OC(=O)NCC2CCCCC2)cc1-c1cncc(-c2nnn[nH]2)c1` [Example 251, 3-(5-(1H-tetrazol-5-yl)pyridin-3-yl)-4-methoxyphenyl (cyclohexylmethyl)carbamate] was tested, and the IC50 (human recombinant FAAH) was over 1 µM and the IC50 (human recombinant MAGL) was over 10 µM.
Compound `COC(=O)c1cncc(-c2cccc(OC(=O)NC3CCCC3)c2)c1` [Example 11, methyl 5-(3-((cyclopentylcarbamoyl)oxy)phenyl)nicotinate] has an IC50 (human recombinant FAAH) of 0.01 to 0.1 µM and an IC50 (human recombinant MAGL) of over 10 µM.
For `O=C(NC1CCCC1)Oc1ccc(O)c(-c2cncc(-c3nnn[nH]3)c2)c1` [Example 247, 3-(5-(1H-tetrazol-5-yl)pyridin-3-yl)-4-hydroxyphenyl cyclopentylcarbamate], the IC50 (human recombinant FAAH) was over 1 µM and the IC50 (human recombinant MAGL) was over 10 µM.
`O=C(NCC1CCCCC1)Oc1cccc(-c2cncc(-c3ncno3)c2)c1` [Example 204, 3-(5-(1,2,4-oxadiazol-5-yl)pyridin-3-yl)phenyl (cyclohexylmethyl)carbamate] was tested, and the IC50 (human recombinant FAAH) was 0.01 to 0.1 µM and the IC50 (human recombinant MAGL) was over 10 µM.
`CCCCCNC(=O)Oc1cccc(-c2cncc(C=O)c2)c1` [Example 14, 3-(5-formylpyridin-3-yl)phenyl pentylcarbamate] was tested, and the IC50 (human recombinant FAAH) was 0.01 to 0.1 µM and the IC50 (human recombinant MAGL) was 10 to 50 µM.
Compound `COc1ccc(OC(=O)NC2CCCC2)cc1-c1cncc(-c2ccc[nH]2)c1` [Example 44, 3-(5-(1H-pyrrol-2-yl)pyridin-3-yl)-4-methoxyphenyl cyclopentylcarbamate] has an IC50 (human recombinant FAAH) of over 1 µM and an IC50 (human recombinant MAGL) of over 10 µM.
For `O=C(NC1CCCC1)Oc1cccc(-c2cc(-c3nnco3)ccn2)c1` [Example 259, 3-(4-(1,3,4-oxadiazol-2-yl)pyridin-2-yl)phenyl cyclopentylcarbamate], the IC50 (human recombinant FAAH) was 0.1 to 1 µM and the IC50 (human recombinant MAGL) was over 10 µM.
In the case of `O=C(NC1CCCCC1)Oc1cc(F)cc(-c2cncc(-c3nnco3)c2)c1` [Example 197, 3-(5-(1,3,4-oxadiazol-2-yl)pyridin-3-yl)-5-fluorophenyl cyclohexylcarbamate], the IC50 (human recombinant FAAH) is reported as 0.1 to 1 µM and the IC50 (human recombinant MAGL) is reported as over 10 µM.
`CCCCCCCCNC(=O)Oc1cccc(-c2cncc(-c3ccno3)c2)c1` [Example 105, 3-(5-(isoxazol-5-yl)pyridin-3-yl)phenyl octylcarbamate] was tested, and the IC50 (human recombinant FAAH) was 0.001 to 0.01 µM and the IC50 (human recombinant MAGL) was over 10 µM.
With `O=C(NCCCc1ccccc1)Oc1cccc(-c2cncc(-c3nnco3)c2)c1` [Example 136, 3-(5-(1,3,4-oxadiazol-2-yl)pyridine-3-yl)phenyl (3-phenylpropyl)carbamate] the IC50 (human recombinant FAAH) was 0.01 to 0.1 µM and the IC50 (human recombinant MAGL) was 10 to 50 µM.
`Cc1cc(OC(=O)NC2CCCCCCC2)cc(-c2cncc(-c3ncco3)c2)c1` [Example 104, 3-methyl-5-(5-(oxazol-2-yl)pyridin-3-yl)phenyl cyclooctylcarbamate] was tested, and the IC50 (human recombinant FAAH) was 0.1 to 1 µM and the IC50 (human recombinant MAGL) was about 10 µM.
Compound `CCCCCCCCNC(=O)Oc1ccc(O)c(-c2cncc(-c3ncn[nH]3)c2)c1` [Example 226, 3-(5-(1H-1,2,4-triazol-5-yl)pyridin-3-yl)-4-hydroxyphenyl octyl carbamate] has an IC50 (human recombinant FAAH) of 0.001 to 0.01 µM and an IC50 (human recombinant MAGL) of over 10 µM.
`O=C(Oc1cccc(-c2cncc(-c3nnco3)c2)c1)N1CC2CCCC2C1` (stereo not drawn) [Example 149, 3-(5-(1,3,4-oxadiazol-2-yl)pyridin-3-yl)phenyl hexahydrocyclopenta[c]pyrrole-2(1H)-carboxylate] showed an IC50 (human recombinant FAAH) of 0.01 to 0.1 µM and an IC50 (human recombinant MAGL) of 1 to 10 µM.
`Cc1cc(OC(=O)NCc2ccccc2)cc(-c2cncc(-c3ncco3)c2)c1` [Example 100, 3-methyl-5-(5-(oxazol-2-yl)pyridin-3-yl)phenyl benzylcarbamate] showed an IC50 (human recombinant FAAH) of over 1 µM and an IC50 (human recombinant MAGL) of over 10 µM.
`COc1ccc(OC(=O)NC2CCC(C)CC2)cc1-c1cncc(-c2ncco2)c1` (stereo not drawn) [Example 82, 4-methoxy-3-(5-(oxazol-2-yl)pyridin-3-yl)phenyl (4-methylcyclohexyl)carbamate] showed an IC50 (human recombinant FAAH) of 0.1 to 1 µM and an IC50 (human recombinant MAGL) of over 10 µM.
Compound `O=C(NCC1CCCCC1)Oc1cc(O)cc(-c2cncc(-c3nnco3)c2)c1` [Example 161, 3-(5-(1,3,4-oxadiazol-2-yl)pyridin-3-yl)-5-hydroxyphenyl (cyclohexylmethyl)carbamate] has an IC50 (human recombinant FAAH) of 0.01 to 0.1 µM and an IC50 (human recombinant MAGL) of 10 to 50 µM.
In the case of `COc1ccc(OC(=O)NCC2CCCCC2)cc1-c1cncc(-c2nncs2)c1` [Example 214, 3-(5-(1,3,4-thiadiazol-2-yl)pyridin-3-yl)-4-methoxyphenyl (cyclohexylmethyl)carbamate], the IC50 (human recombinant FAAH) is reported as 0.01 to 0.1 µM and the IC50 (human recombinant MAGL) is reported as over 10 µM.
Compound `CCCCCCCCNC(=O)Oc1cccc(-c2cncc(-c3ccc[nH]3)c2)c1` [Example 35, 3-(5-(1H-pyrrol-2-yl)pyridin-3-yl)phenyl octylcarbamate] has an IC50 (human recombinant FAAH) of 0.01 to 0.1 µM and an IC50 (human recombinant MAGL) of over 10 µM.
For `COc1ccc(OC(=O)NC2CCCC2)cc1-c1cncc(-c2nnn[nH]2)c1` [Example 253, 3-(5-(1H-tetrazol-5-yl)pyridin-3-yl)-4-methoxyphenyl cyclopentylcarbamate], the IC50 (human recombinant FAAH) was over 1 µM and the IC50 (human recombinant MAGL) was over 10 µM.
With `O=Cc1cncc(-c2cccc(OC(=O)NC34CC5CC(CC(C5)C3)C4)c2)c1` [Example 21, 3-(5-formylpyridin-3-yl)phenyl ((1s,3s)-adamantan-1-yl)carbamate] the IC50 (human recombinant FAAH) was over 1 µM and the IC50 (human recombinant MAGL) was over 10 µM.
For `COc1ccc(OC(=O)NC2CCCCCC2)cc1-c1cncc(-c2cccs2)c1` [Example 70, 4-methoxy-3-(5-(thiophen-2-yl)pyridin-3-yl)phenyl cycloheptylcarbamate], the IC50 (human recombinant FAAH) was 0.1 to 1 µM and the IC50 (human recombinant MAGL) was over 10 µM.
In the case of `COc1ccc(OC(=O)NC2CCCC2)cc1-c1cncc(-c2ccco2)c1` [Example 56, 3-(5-(furan-2-yl)pyridin-3-yl)-4-methoxyphenyl cyclopentylcarbamate], the IC50 (human recombinant FAAH) is reported as 0.1 to 1 µM and the IC50 (human recombinant MAGL) is reported as over 10 µM.
`CCCCCCCCNC(=O)Oc1cc(-c2cncc(-c3ncco3)c2)ccc1C` [Example 92, 2-methyl-5-(5-(oxazol-2-yl)pyridin-3-yl)phenyl octylcarbamate] showed an IC50 (human recombinant FAAH) of 0.1 to 1 µM and an IC50 (human recombinant MAGL) of over 10 µM.
`N#Cc1cncc(-c2cccc(OC(=O)NC3CCCCC3)c2)c1` [Example 28, 3-(5-cyanopyridin-3-yl)phenyl cyclohexylcarbamate] was tested, and the IC50 (human recombinant FAAH) was 0.1 to 1 µM and the IC50 (human recombinant MAGL) was over 10 µM.
Work on `O=C(NC1CCCCCC1)Oc1ccc(OC(F)(F)F)c(-c2cncc(-c3nnco3)c2)c1` [Example 202, 3-(5-(1,3,4-oxadiazol-2-yl)pyridin-3-yl)-4-(trifluoromethoxy)phenyl cycloheptylcarbamate] yielded an IC50 (human recombinant FAAH) of 0.1 to 1 µM and an IC50 (human recombinant MAGL) of over 10 µM.
`O=C(Nc1ccccc1)Oc1ccc(OC(F)(F)F)c(-c2cncc(-c3nnco3)c2)c1` [Example 203, 3-(5-(1,3,4-oxadiazol-2-yl)pyridin-3-yl)-4-(trifluoromethoxy)phenyl phenylcarbamate] gave an IC50 (human recombinant FAAH) of over 1 µM and an IC50 (human recombinant MAGL) of over 10 µM.
`O=C(NCc1ccccc1)Oc1cccc(-c2cncc(-c3ccc[nH]3)c2)c1` [Example 37, 3-(5-(1H-pyrrol-2-yl)pyridin-3-yl)phenyl benzylcarbamate] was tested, and the IC50 (human recombinant FAAH) was about 1 µM and the IC50 (human recombinant MAGL) was over 10 µM.
Work on `O=C(NCC1CCCCC1)Oc1cccc(-c2cncc(-c3ncn[nH]3)c2)c1` [Example 220, 3-(5-(1H-1,2,4-triazol-5-yl)pyridin-3-yl)phenyl (cyclohexylmethyl)carbamate] yielded an IC50 (human recombinant FAAH) of 0.01 to 0.1 µM and an IC50 (human recombinant MAGL) of about 10 µM.
`O=C(Oc1cccc(-c2cncc(-c3nnco3)c2)c1)N1CCOCC1` [Example 151, 3-(5-(1,3,4-oxadiazol-2-yl)pyridin-3-yl)phenyl morpholine-4-carboxylate] was tested, and the IC50 (human recombinant FAAH) was 1 to 10 µM and the IC50 (human recombinant MAGL) was over 10 µM.
